From US20100130737A1, “Regulating Agent of GPR34 Receptor Function” (TAKEDA PHARMACEUTICAL COMPANY LIMITED, priority 2005, published 2010)

How the values were obtained:
[1] = test system: rat peritoneal mast cells; assay: Degranulation inhibiting activity in rat peritoneal mast cells (β-hexosaminidase release); format: cell-based; conditions: 10 μM compound; co-stimulation with 3 μM LysoPS and 100 ng/ml DNP-BSA = 100%, spontaneous degranulation = 0%
Experimental: Ice-cooled mast cell medium (hereunder called MCM: 150 mM NaCl, 3.7 mM KCl, 3.0 mM NaH2PO4, 3.5 mM KH2PO4, 5.6 mM (D)-Glucose, 0.1% bovine serum albumin (BSA), 0.1% gelatin, 10 U/ml heparin, pH 6.8) was injected intraperitoneally into rats, about 40 ml per rat, the abdomens were massaged for about 2 minutes and then opened along the median line, and ascites was collected. The collected ascites were filtered with a cell strainer (Becton Dickinson) and centrifuged for 7 minutes at 50×g, and the precipitated cells were suspended in MCM and then centrifuged again for 7 minutes at 50×g. The precipitated cells were suspended in 5 ml of MCM, layered over 2 ml of 32% (w/v) BSA solution (dissolved in 0.9% NaCL), and left for 20 minutes at room temperature. This was centrifuged for 15 minutes at room temperature at 300×g, the cells between the MCM and BSA solution were discarded, and the precipitated cells were suspended in MCM and washed twice by being centrifuged for 5 minutes at 300×g. The precipitated cells were suspended in assay buffer (150 mM NaCl, 3.7 mM KCl, 3.0 mM NaH2PO4, 3.5 mM KH2PO4, 0.9 mM CaCl2, 5.6 mM (D)-Glucose, 0.01% BSA, pH 6.8), and these cells were used in the following test.
RPMC cells suspended in assay buffer were passively sensitized by adding 10 μg/ml of monoclonal mouse anti-DNP-IgE (Seikagaku) and leaving them for 30 minutes on ice. After 5 minutes of centrifugation at 300×g, the precipitated cells were washed 3 times with assay buffer. The RPMC cells suspended in assay buffer were dispensed on 96-well V-bottom plates, 2×10^4 cells per well. The assay was performed with n=3 under each set of reaction conditions. The plates were maintained for 5 minutes at 37° C., the test compound was added, and after 15 minutes lysoPS (Sigma) was added to a final concentration of 3 μM and DNP-BSA (Calbiochem) to a final concentration of 100 ng/ml for a final capacity of 200 and left on a water bath at 37° C. After 20 minutes, the plate was ice cooled to stop RPMC activation, followed by 5 minutes of centrifugation at 300×g, and β-hexosaminidase activity in the supernatant was measured using 4-methylumbelliferyl-2-acetamido-2-deoxy-β-D-glucopyranoside (Wako Pure Chemical) degradation as the indicator.

[2] = biological target: human GPR34 (Homo sapiens, UniProt Q9UPC5); assay: Human GPR34 antagonist activity indicated by changes in intracellular calcium concentration (FLIPR); format: cell-based; design: expressed in transfected cells; host or cells: CHO cells (human GPR34CHO line) stably transfected with pCR3.1 human lung Gα16; conditions: CHO cells expressing human GPR34/Gα16, against 2 μM lysoPS final concentration, Fluo-3AM
human GPR34, sequence (Q9UPC5 whole entry): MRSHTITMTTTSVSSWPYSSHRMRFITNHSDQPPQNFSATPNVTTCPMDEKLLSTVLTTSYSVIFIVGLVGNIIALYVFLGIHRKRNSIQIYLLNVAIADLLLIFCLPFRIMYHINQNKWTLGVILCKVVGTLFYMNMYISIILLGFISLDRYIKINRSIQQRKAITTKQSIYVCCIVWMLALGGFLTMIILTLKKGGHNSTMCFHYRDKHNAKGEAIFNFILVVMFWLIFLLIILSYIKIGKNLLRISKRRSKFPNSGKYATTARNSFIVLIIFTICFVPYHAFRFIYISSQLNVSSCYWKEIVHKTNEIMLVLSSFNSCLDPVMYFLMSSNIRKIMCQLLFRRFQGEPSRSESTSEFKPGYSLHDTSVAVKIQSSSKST
Experimental: CHO cells expressing human GPR34/Gα were diluted to 3×10^4/100 μl in cell culture medium [nucleic acid-free Minimum Essential Alpha Medium (Invitrogen) containing 10% dialyzed fetal bovine serum (Invitrogen) 0.5 mg/ml Geneticin (Invitrogen), penicillin and streptomycin (Invitrogen)], dispensed 100 μl per well into a Black walled 96-well plate (Costar), and cultured overnight in a CO2 incubator. Changes in intracellular calcium concentration were measured with a FLIPR (Molecular Device) by the methods described below.
50 μg of Fluo-3AM (Dojindo) was dissolved in 21 μl of DMSO (Dojindo), an equal amount of 20% pluronic acid (Molecular Probes) was added and mixed, and this was added to 10.6 ml of assay buffer [prepared by adding 20 ml of 1 M HEPES (pH 7.4, Dojindo) to HBSS (Invitrogen), and then adding 10 ml of a solution obtained by dissolving 710 mg of Probenecid (Sigma) in 5 ml of 1 N NaOH and then adding and mixing 5 ml of the HBSS/HEPES solution)] with 105 μl of fetal bovine serum added thereto to prepare a fluorescent dye solution. The medium was removed from the cell plate, 100 μl per well of the fluorescent dye solution was immediately poured in, and the cells were cultured for 1 hour in a CO2 incubator to incorporate the fluorescent dye into the cells. After culture, the cells were washed with the aforementioned assay buffer. The compound was dissolved in DMSO (Wako Pure Chemical), diluted with DMSO as necessary, added to the aforementioned assay buffer to the target concentration and poured into the plate. To measure antagonist activity, 8 μM lysophosphatidyl serine (lysoPS, Alexis) solution (2 μM final concentration during reaction) was poured into the plate, which was set in the FLIPR. Following these preliminaries, the agonist effect was measured in the FLIPR by measuring changes in intracellular calcium concentration up to 180 seconds after addition of the sample, and after 200 seconds lysoPS was added and the antagonist effect was measured. In the case of the agonist effect, the EC50 value of the added compound was calculated from the dose reaction curve using changes in fluorescent strength from 0 to 180 seconds after the start of the reaction. In the case of the antagonist effect, the IC50 was calculated from the dose reaction curve using changes in maximum fluorescent strength after 200 to 380 seconds of reaction time. The data was analyzed using “GraphPad PRISM4”.

| melting point | IC50 [2] [µM] | SMILES | degranulation of rat peritoneal mast cells due to LysoPS and DNP-BSA stimulation [1] [%] |
| --- | --- | --- | --- |
| – | – | COC(=O)CC(=O)NC1(C(=O)O)Cc2ccc(-c3ccc(Cl)cc3)cc2C1 (stereo not drawn) [Example B13] | 10 |
| – | – | O=C(Cc1ccc(OCc2ccccc2)cc1)NC1(C(=O)O)Cc2ccc(-c3ccc(Cl)cc3)cc2C1 (stereo not drawn) [Example B174, 2-({[4-(Benzyloxy)phenyl]acetyl}amino)-5-(4-chlorophenyl)indan-2-carboxylic acid] | 8 |
| 143 to 144 °C | – | Cc1c(C(=O)N[C@@H](Cc2ccc(OCc3ccccc3)cc2)C(=O)O)oc2cc(-c3ccc(Cl)cc3)ccc12 [Example C115, O-Benzyl-N-{[6-(4-chlorophenyl)-3-methyl-1-benzofuran-2-yl]carbonyl}-L-tyrosine] | 20 |
| 211 to 212 °C | ≤ 1 | CCCOc1ccc(-c2ccc3sc(C(=O)N[C@@H](Cc4ccc(OCc5ccc(F)cc5)cc4)C(=O)O)cc3c2)cc1 [Example C131, O-(4-Fluorobenzyl)-N-{[5-(4-propoxyphenyl)-1-benzothiophene-2-yl]carbonyl}tyrosine] | 10.2 |
| 189 to 190 °C | ≤ 1 | O=C(N[C@@H](Cc1ccc(OCc2ccc(F)cc2)cc1)C(=O)O)c1cc2cc(-c3ccc(Cl)cc3)ccc2s1 [Example C133, N-{[5-(4-Chlorophenyl)-1-benzothiophene-2-yl]carbonyl}-O-(4-fluorobenzyl)tyrosine] | 12.4 |
| 228 °C | ≤ 1 | O=C(N[C@@H](Cc1ccc(OCc2ccccc2)cc1)C(=O)O)c1cn2cc(-c3ccccc3Cl)ccc2n1 [Example E24, O-Benzyl-N-{[6-(2-chlorophenyl)imidazo[1,2-a]pyridin-2-yl]carbonyl}tyrosine] | – |
| 278 to 280 °C | ≤ 1 | O=C(N[C@@H](Cc1ccc(OCc2ccccc2)cc1)C(=O)O)c1ccc2nc(-c3ccc(Cl)cc3)cn2c1 [Example E25, O-Benzyl-N-{[2-(4-chlorophenyl)imidazo[1,2-a]pyridin-6-yl]carbonyl}tyrosine] | – |
| 263 to 264 °C | ≤ 1 | Cc1c(-c2ccc(Cl)cc2)ccc2nc(C(=O)N[C@@H](Cc3ccc(OCc4ccccc4)cc3)C(=O)O)cn12 [Example E26, O-Benzyl-N-{[6-(4-chlorophenyl)-5-methylimidazo[1,2-a]pyridin-2-yl]carbonyl}tyrosine] | – |
| 249 to 250 °C | ≤ 1 | Cc1cc(-c2ccc(Cl)cc2)cn2cc(C(=O)N[C@@H](Cc3ccc(OCc4ccccc4)cc3)C(=O)O)nc12 [Example E27, O-Benzyl-N-{[6-(4-chlorophenyl)-8-methylimidazo[1,2-a]pyridin-2-yl]carbonyl}tyrosine] | – |
| 210 °C | ≤ 1 | O=C(N[C@@H](Cc1ccc(OCc2ccccc2)cc1)C(=O)O)c1cn2cccc(OCc3ccc(Cl)cc3)c2n1 [Example E28, O-Benzyl-N-({8-[(4-chlorobenzyl)oxy]imidazo[1,2-a]pyridin-2-yl}carbonyl)tyrosine] | – |
| 256 to 257 °C | ≤ 1 | O=C(N[C@@H](Cc1ccc(OCc2ccccc2)cc1)C(=O)O)c1cn2nc(/C=C/c3ccc(Cl)cc3)ccc2n1 [Example E29, O-Benzyl-N-({6-[(E)-2-(4-chlorophenyl)ethenyl]imidazo[1,2-b]pyridazin-2-yl}carbonyl)tyrosine] | – |
| 242 to 244 °C | ≤ 1 | O=C(N[C@@H](Cc1ccc(OCc2ccccc2)cc1)C(=O)O)c1nc2ccc(-c3ccc(Cl)cc3)cn2c1Cl [Example E37, O-Benzyl-N-{[3-chloro-6-(4-chlorophenyl)imidazo[1,2-a]pyridin-2-yl]carbonyl}tyrosine] | – |
| 267 to 270 °C | ≤ 1 | O=C(N[C@@H](Cc1ccc(OCc2ccccc2)cc1)C(=O)O)c1cn2cc(/C=C/c3ccc(Cl)cc3)ccc2n1 [Example E41, O-Benzyl-N-({6-[(E)-2-(4-chlorophenyl)ethenyl]imidazo[1,2-a]pyridin-2-yl}carbonyl)tyrosine] | – |
| 266 to 267 °C | ≤ 1 | Cc1ccc(/C=C/c2ccc3nc(C(=O)N[C@@H](Cc4ccc(OCc5ccccc5)cc4)C(=O)O)cn3c2)cc1 [Example E42, O-Benzyl-N-({6-[(E)-2-(4-methylphenyl)ethenyl]imidazo[1,2-a]pyridin-2-yl}carbonyl) tyrosine] | – |
| 263 °C (dec.) | ≤ 1 | CC(C)Oc1ccc(-c2ccc3nc(C(=O)N[C@@H](Cc4ccc(OCc5ccccc5)cc4)C(=O)O)cn3c2)cc1 [Example E45, O-Benzyl-N-{[6-(4-isopropoxyphenyl)imidazo[1,2-a]pyridin-2-yl]carbonyl}tyrosine] | – |
| 250 to 252 °C | ≤ 1 | O=C(N[C@@H](Cc1ccc(OCc2ccccc2F)cc1)C(=O)O)c1cn2ccc(-c3ccc(Cl)cc3)cc2n1 [Example E47, N-{[7-(4-Chlorophenyl)imidazo[1,2-a]pyridin-2-yl]carbonyl}-O-(2-fluorobenzyl)tyrosine] | – |
| 248 to 250 °C | ≤ 1 | O=C(N[C@@H](Cc1ccc(OCc2cccc(F)c2)cc1)C(=O)O)c1cn2ccc(-c3ccc(Cl)cc3)cc2n1 [Example E48, N-{[7-(4-Chlorophenyl)imidazo[1,2-a]pyridin-2-yl]carbonyl}-O-(3-fluorobenzyl)tyrosine] | – |
| 255 to 257 °C | ≤ 1 | O=C(N[C@@H](Cc1ccc(OCc2ccc(F)cc2)cc1)C(=O)O)c1cn2ccc(-c3ccc(Cl)cc3)cc2n1 [Example E49, N-{[7-(4-Chlorophenyl)imidazo[1,2-a]pyridin-2-yl]carbonyl}-O-(4-fluorobenzyl)tyrosine] | – |
| 178 to 179 °C | ≤ 1 | O=C(N[C@@H](Cc1ccc(OCc2ccccc2)cc1)C(=O)O)c1cn2nc(SCc3ccccc3)ccc2n1 [Example E54, O-Benzyl-N-{[6-(benzylthio)imidazo[1,2-b]pyridazine-2-yl]carbonyl}tyrosine] | – |
| 239 °C (dec.) | – | O=C(NC(Cc1ccc(OCc2ccccc2)cc1)C(=O)O)c1cn2cc(CCc3ccccc3)ccc2n1 (stereo not drawn) [Example E57, O-Benzyl-N-{[6-(2-phenethyl)imidazo[1,2-a]pyridin-2-yl]carbonyl}tyrosine] | 8.3 |
| 263 °C | ≤ 1 | N#Cc1ccc(COc2ccc(C[C@H](NC(=O)c3cn4ccc(-c5ccc(Cl)cc5)cc4n3)C(=O)O)cc2)cc1 [Example E64, N-{[7-(4-Chlorophenyl)imidazo[1,2-a]pyridin-2-yl]carbonyl}-O-(4-cyanobenzyl)tyrosine] | – |
